The text below walks through data of US12612412B2, “Antiviral heterocyclic compounds” (Enanta Pharmaceuticals, Inc., priority 2021, dated 2026).

Where two headings read alike, the source gives them in different places. Some results are limits rather than exact numbers.

Experiment [1] has as its system HMPV clinical isolate TN/1501/A1. Kind of experiment: HMPV antiviral assay Method-B (clinical isolate TN/1501/A1 in LLC-MK2 cells, ATP-Lite readout). The experiment is classed as cell-based, Human metapneumovirus (HMPV). To be noted: human metapneumovirus, LLC-MK2, 144 h, hMPV WT1501 (clinical isolate TN/1501/A1), 6 days. The protocol: In vitro HMPV antiviral activity was evaluated using the clinical isolate TN/1501/A1 and LLC-MK2 cells (ATCC #CCL-7), an immortalized kidney epithelial cell line from Macaca mulatta. Compounds were resuspended in dimethyl sulfoxide (DMSO) at 10 mM and added to a 384-well source plate. The compounds were diluted and transferred onto 384-well assay plates using the Echo-650 automated liquid handling system (Beckman Coulter, Indiana). The test compounds were assessed in duplicate at a top concentration of 10 μM followed by 3-fold serial dilutions to give a total of 10 concentration points. DMSO control wells were also included on the assay plates and were either infected or not, acting as positive and negative controls. TN/1501/A1 virus infections were performed in-suspension with LLC-MK2 cells. The cells were washed twice with PBS and removed from the cell-culture flask with 0.25% trypsin-EDTA (Thermo Fisher Scientific, MA). The trypsin-EDTA was inactivated by resuspending in 2% fetal bovine serum (FBS) and OptiMEM (ThermoFisher Scientific, MA) containing 1% penicillin-streptomycin. Cells were pelleted by centrifuging for 5 minutes at 800 rpm, the supernatant was removed, and cells were suspended in PBS plus 100 μg/mL CaCl2). This step was performed twice. Cells were then resuspended in serum-free (SF)-OptiMEM containing 4 μg/mL TPCK-Trypsin (Sigma Aldrich, MO), 1% penicillin-streptomycin (ThermoFisher Scientific, MA) and 100 μg/mL CaCl2). Cells were counted and seeded at a density of 5,000 cells/well, 12.5 μL/well. Virus infections were done at a multiplicity of infection (MOI) of 0.014 with 12.5 μL added per well. SF-OptiMEM, 12.5 μL/well, was added to the appropriate wells to serve as a virus-free negative control for the assay. The final concentration of TPCK-trypsin was 2 μg/mL. Plates were incubated at 37° C., 5% CO2 for 6 days. After 6 days incubation, 12.5 μL of ATP-Lite (PerkinElmer, MA) was added to each well and the raw luminescence values were determined using the Envision 2104 (Perkin Elmer, MA). The average of the raw luminescence values for the cells and virus only positive control wells was subtracted from all conditions tested and the percent cell health was determined by dividing these values by the average of the cells only negative control wells. EC50 values were then calculated by non-linear regression using a four-parameter curve logistic equation. The curve fit model employed was XLFit Dose Response One Site Model 200: y=(A+(B/(1+((x/C)^D)))), where A is the minimum y value, B is the maximum y value, C is the log EC50 value, and D is the slope factor. […] EC50 ranges are as follows: A<0.5 μM; B>0.5 μM.

The test system of experiment [2] is genotype A, "Long" strain RSV. Kind of experiment: RSV-A assay (CPE protection in Hep-2 cells, ATPlite readout). The experiment is classed as cell-based, Human respiratory syncytial virus (HRSV). As to conditions: human respiratory syncytial virus, MOI 0.1, CPE protection. An outline of the steps:
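Hep-2 cells (8,000/well) were treated with 2-fold serial compound dilutions in duplicate and infected with RSV at MOI 0.1. After 5 days, protection from cytopathic effect was measured as cell viability by ATPlite luminescence, and EC50 values were derived.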
On the technique in general: Cellular ATP, detected with luciferase, serves as a proxy for viable cell number.

[3] abbreviates: RSV-A Long strain, read-out: Human RSV-A (“Long”) EC50.
The mark [4] stands for this setting: genotype A “Long” strain RSV, read-out: Human RSV-A (“Long”).

In the case of `COc1cc(C(=O)NC[C@](O)(c2cc3c(c(-c4ccc(F)c(F)c4F)n2)OC[C@@]3(C(N)=O)C(F)F)C(F)(F)F)cc2cc(Cl)c(C)nc12` [Example 1041], the EC50 is less than 500 nM in experiment [1] and less than 200 nM in experiment [2] (setting [3]).

In the case of `C[C@@H](O)COc1ccc(C(=O)NC[C@](O)(c2cc3c(c(-c4ccc5c(c4)OC(F)(F)O5)n2)OC[C@]3(C)C(N)=O)C2CC2)cc1OC1CC1` [Example 829], the EC50 in experiment [1] is more than 500 nM; in experiment [2] (setting [3]) it was less than 200 nM. Consider `COc1cc(C(=O)NC[C@@](O)(c2cc3c(c(-c4ccc(F)c(Br)c4F)n2)OC[C@]3(C)C(N)=O)C(F)(F)F)cc2cn(C3CC3)nc12` [Example 955], for which the EC50 in experiment [1] was more than 500 nM; in experiment [2] (setting [3]), less than 200 nM. With `COc1cc(C(=O)NC[C@](O)(c2cc3c(c(-c4ccc(F)cc4)n2)OC[C@]3(C(N)=O)C(F)F)C2CC2)cc2cn(C3CC3)nc12` [Example 1022], the values for the EC50 in experiment [1] and in experiment [2] (setting [3]) were more than 500 nM and more than 200 nM, respectively. With `COc1cc(C(=O)NC[C@](O)(c2cc3c(c(-c4csc5c(F)cccc45)n2)OC[C@]3(C)C(N)=O)C2CC2)cc2cc(Cl)c(C)nc12` [Example 595], the results for the EC50 in experiment [1] and in experiment [2] (setting [4]) were less than 500 nM and less than 200 nM, respectively. For `Cc1cnc2c(OC(F)F)cc(C(=O)NC[C@](O)(c3cc4c(c(-c5ccc6c(c5)OC(F)(F)O6)n3)OC[C@@]4(C(N)=O)C(F)F)C3CC3)cc2c1` [Example 1021], the EC50 was less than 500 nM in experiment [1] and less than 200 nM in experiment [2] (setting [3]). On to `COc1cc(C(=O)NC[C@](O)(c2cc3c(c(-c4ccc(F)c(F)c4Cl)n2)OC[C@]3(C)C(N)=O)C(F)(F)F)cc2cc(Cl)c(C)nc12` [Example 774], for which the EC50 is less than 500 nM in experiment [1] and less than 200 nM in experiment [2] (setting [4]). For the molecule `COc1cc(C(=O)NC[C@](O)(c2cc3c(c(-c4ccc(Cl)c(C(F)(F)F)c4)n2)OC[C@]3(C)C(N)=O)C(F)(F)F)cc2cn(C3CC3)nc12` [Example 972], the EC50 in experiment [1] is less than 500 nM; in experiment [2] (setting [3]) it was less than 200 nM. The like results for `COc1cc(C(=O)NC[C@](O)(c2cc3c(c(-c4ccc5c(c4)OC(F)(F)O5)n2)OC[C@@]3(C(N)=O)C(F)F)C(F)(F)F)cc2cc(Cl)c(C)nc12` [Example 1037] were, in that order, less than 500 nM and less than 200 nM.

With `Cc1cnc2c(OC(F)F)cc(C(=O)NC[C@](O)(c3cc4c(c(-c5ccc(F)cc5)n3)OC[C@]4(C(N)=O)C(F)F)C3CC3)cc2c1` [Example 1026], the EC50 in experiment [1] is more than 500 nM; in experiment [2] (setting [3]), more than 200 nM. In the case of `C[C@]1(C(N)=O)COc2c1cc([C@@](O)(CNC(=O)c1cc(OCC3CC3)c3nn(C4(F)CC4)cc3c1)C(F)(F)F)nc2-c1csc2c(F)cccc12` [Example 610], the EC50 was less than 500 nM in experiment [1] and less than 200 nM in experiment [2] (setting [4]). Taken in the same sequence, the figures for `C[C@]1(C(N)=O)COc2c1cc([C@@](O)(CNC(=O)c1cc(Cl)c3nn(C4CC4)cc3c1)C(F)(F)F)nc2-c1cc(Cl)c(F)cc1F` [Example 619] were less than 500 nM and less than 200 nM. The like results for `Cc1nc2c(OC3CC3)cc(C(=O)NC[C@](O)(c3cc4c(c(-c5ccc(F)c(F)c5F)n3)OC[C@]4(C)C(N)=O)C3CC3)cc2cc1Cl` [Example 530] were, in that order, less than 500 nM and less than 200 nM.

For the molecule `C[C@]1(C(N)=O)COc2c1cc([C@@](O)(CNC(=O)c1cc(Cl)c3nn(C4CC4)cc3c1)C1CC1)nc2-c1ccc2c(c1)OC(F)(F)O2` [Example 547], the EC50 in experiment [1] is less than 500 nM; in experiment [2] (setting [4]), less than 200 nM. With `Cc1nc2c(OC3CC3)cc(C(=O)NC[C@](O)(c3cc4c(c(-c5ccc(F)c(F)c5F)n3)OC[C@]4(C)C(N)=O)C(F)(F)F)cc2cc1Cl` [Example 514], the EC50 in experiment [1] was less than 500 nM; in experiment [2] (setting [4]) it was less than 200 nM. Take `Cc1nc2c(Cl)cc(C(=O)NC[C@](O)(c3cc4c(c(-c5ccc(F)cc5)n3)OC[C@]4(C)C(N)=O)C(F)(F)F)cc2cc1Cl` [Example 883]: the EC50 in experiment [1] is more than 500 nM; in experiment [2] (setting [3]) it was less than 200 nM. With `COc1cc(C(=O)NC[C@](O)(c2cc3c(c(-c4ccc(F)cc4)n2)OC[C@]3(C)C(N)=O)C2(F)CC2)cc2sc(C3CC3)nc12` [Example 742], the EC50 in experiment [1] was less than 500 nM; in experiment [2] (setting [4]), less than 200 nM. For `COc1cc(C(=O)NC[C@](O)(c2cc3c(c(-c4cc(Cl)c(F)cc4F)n2)OC[C@]3(C)C(N)=O)C(F)(F)F)cc2cn(C3(F)CC3)nc12` [Example 613], the EC50 was less than 500 nM in experiment [1] and less than 200 nM in experiment [2] (setting [4]). `COc1cc(C(=O)NC[C@](O)(c2cc3c(c(-c4cc(Cl)c(F)c(Cl)c4)n2)OC[C@]3(C)C(N)=O)C(F)(F)F)cc2cn(C(F)F)nc12` [Example 670]: the EC50 in experiment [1] was more than 500 nM; in experiment [2] (setting [4]), less than 200 nM. With `COc1cc(C(=O)NC[C@](O)(c2cc3c(c(-c4ccc(F)c(F)c4)n2)OC[C@]3(C)C(N)=O)C2CC2)cc2cn(C3CC3)nc12` [Example 534], the EC50 in experiment [1] is less than 500 nM; in experiment [2] (setting [4]), less than 200 nM.

In the case of `Cc1cnc2c(OC(F)F)cc(C(=O)NC[C@](O)(c3cc4c(c(-c5ccc(F)c(C(F)(F)F)c5)n3)OC[C@]4(C)C(N)=O)C3(F)CC3)cc2c1` [Example 750], the EC50 was less than 500 nM in experiment [1] and less than 200 nM in experiment [2] (setting [4]). `COc1cc(C(=O)NC[C@](O)(c2cc3c(c(-c4ccc(F)cc4)n2)OC[C@]3(C)C(N)=O)C2(F)CC2)cc2cc(Br)c(C)nc12` [Example 772] showed an EC50 in experiment [1] of less than 500 nM. Molecule `COc1cc(C(=O)NC[C@](O)(c2cc3c(c(-c4cc(Cl)c(F)c(Cl)c4)n2)OC[C@]3(C)C(N)=O)C2CC2)cc2cn(C3CC3)nc12` [Example 676] gave an EC50 in experiment [1] of less than 500 nM. `COc1cc(C(=O)NC[C@](O)(c2cc3c(c(-c4cc(Cl)c(F)c(Cl)c4)n2)OC[C@]3(C)C(N)=O)C2CC2)cc2cc(Br)cnc12` [Example 679] displayed an EC50 in experiment [1] of more than 500 nM. In experiment [1], `COc1cc(C(=O)NC[C@@](O)(c2cc3c(c(-c4cc(Br)c(F)cc4F)n2)OC[C@]3(C)C(N)=O)C(F)(F)F)cc2cn(C3CC3)nc12` [Example 957] registered an EC50 of less than 500 nM. Same read-out and setting: the result for `COc1cc(C(=O)NC[C@](O)(c2cc3c(c(-c4cc(Cl)c(F)c(Cl)c4)n2)OC[C@]3(C)C(N)=O)C2CC2)cc2cc(Cl)c(C)nc12` [Example 681] reads more than 500 nM; that for `COc1cc(C(=O)NC[C@](O)(c2nc(-c3ccc4c(c3)OC(F)(F)O4)c3c(c2F)[C@](C)(C(N)=O)CO3)C2CC2)cc2cc(Cl)c(C)nc12` [Example 867], more than 500 nM. `COc1cc(C(=O)NC[C@](O)(c2cc3c(c(-c4ccc(F)cc4)n2)OC[C@]3(C)C(N)=O)C(F)(F)F)cc2cc(Br)c(C)nc12` [Example 769] registered an EC50 in experiment [1] of less than 500 nM. Still for that read-out and setting: the result for `COc1cc(C(=O)NC[C@](O)(c2cc3c(c(-c4ccc(F)c(Br)c4F)n2)OC[C@]3(C)C(N)=O)C2CC2)cc2cc(Cl)c(C)nc12` [Example 804] reads less than 500 nM; that for `COc1cc(C(=O)NC[C@](O)(c2cc3c(c(-c4csc5c(F)cccc45)n2)OC[C@]3(C)C(N)=O)C2(F)CC2)cc2cn(C3CC3)nc12` [Example 632], less than 500 nM; that for `C[C@]1(C(N)=O)COc2c1cc([C@@](O)(CNC(=O)c1cc(Cl)c3nn(C4CC4)cc3c1)C1CC1)nc2-c1cc(Cl)c(F)c(Cl)c1` [Example 680], more than 500 nM. For `COc1cc(C(=O)NC[C@](O)(c2cc3c(c(-c4ccc(Cl)c(F)c4F)n2)OC[C@]3(C)C(N)=O)C2CC2)cc2cc(Br)cnc12` [Example 689], in experiment [1], the EC50 is less than 500 nM. The same measure, in the same setting: the figure for `Cc1cnc2c(Cl)cc(C(=O)NC[C@](O)(c3cc4c(c(-c5cc(Cl)c(F)c(Cl)c5)n3)OC[C@]4(C)C(N)=O)C3CC3)cc2c1` [Example 682] is more than 500 nM; for `COc1cc(C(=O)NC[C@](O)(c2cc3c(c(-c4ccc5c(c4)OC(F)(F)O5)n2)OC[C@]3(C)C(N)=O)C(F)(F)F)cc2cc(Br)c(C)nc12` [Example 770] it is less than 500 nM; for `COc1cc(C(=O)NC[C@](O)(c2nc(-c3cc(Cl)c(F)cc3F)c3c(c2F)[C@](C)(C(N)=O)CO3)C2CC2)cc2cn(C3CC3)nc12` [Example 868] it is more than 500 nM.
